What was measured:
[1] = system: P. falciparum 3D7 trophozoites; test: Metabolomic fingerprint profiling LC-MS; assay type: cell-based, Plasmodium falciparum; set-up: UDP-D-glucose / ADP-D-glucose: unit not given here; conditions: for Acetyllysine / N-acetyl-L-ornithine / N-carbamoyl-L-aspartate / NADPH / dAMP / dCMP / dTDP / dTMP / dTTP / dihydroorotate / orotate / DLH / DLS/SDL/SID / PD / PEE / PVNF / 3-phosphoglycerate / ADP-D-glucose / ATP / CDP / D-sedoheptulose-1/7-phosphate / FAD / GMP / NAD+ / NADP+ / Octoluse Bisphosphate / Pyroglutamic acid / UDP-D-glucose / UDP-D-glucuronate / UDP-N-acetyl-glucosamine / UDP / UMP / UTP / a-ketoglutarate / citrate/isocitrate / cytidine / dATP / dGMP/AMP / fumarate / glucose-1/6-phosphate / glycerate / guanine / guanosine / hypoxanthine / indole / inosine / nicotinate / ornithine / phosphoenolpyruvate / pyruvate / ribose-phosphate / sarcosine/alanine / sn-glycerol-3-phosphate / succinate/methylmalonic acid / uridine / xanthosine: S2 Table Metabolomics; for Acetyllysine: metabolite Acetyllysine; for N-acetyl-L-ornithine: metabolite N-acetyl-L-ornithine; for N-carbamoyl-L-aspartate: metabolite N-carbamoyl-L-aspartate; for NADPH: metabolite NADPH; for dAMP: metabolite dAMP; for dCMP: metabolite dCMP; for dTDP: metabolite dTDP; for dTMP: metabolite dTMP; for dTTP: metabolite dTTP; for dihydroorotate: metabolite dihydroorotate; for orotate: metabolite orotate; for DLH: peptide DLH; for DLS/SDL/SID: peptide DLS/SDL/SID; for PD: peptide PD; for PEE: peptide PEE; for PVNF: peptide PVNF; for 3-phosphoglycerate: metabolite 3-phosphoglycerate; for ADP-D-glucose: metabolite ADP-D-glucose; for ATP: metabolite ATP; for CDP: metabolite CDP; for CDP / D-sedoheptulose-1/7-phosphate / GMP / Octoluse Bisphosphate / UDP / UMP / UTP / citrate/isocitrate / dGMP/AMP / fumarate / glucose-1/6-phosphate / glycerate / guanine / guanosine / inosine / pyruvate / sarcosine/alanine / succinate/methylmalonic acid / uridine / xanthosine: change in metabolite level after compound treatment; for D-sedoheptulose-1/7-phosphate: metabolite D-sedoheptulose-1/7-phosphate; for FAD: metabolite FAD; for GMP: metabolite GMP; for NAD+: metabolite NAD+; for NADP+: metabolite NADP+; for Octoluse Bisphosphate: metabolite Octoluse Bisphosphate; for Pyroglutamic acid: metabolite Pyroglutamic acid; for UDP-D-glucose: metabolite UDP-D-glucose; for UDP-D-glucuronate: metabolite UDP-D-glucuronate; for UDP-N-acetyl-glucosamine: metabolite UDP-N-acetyl-glucosamine; for UDP: metabolite UDP; for UMP: metabolite UMP; for UTP: metabolite UTP; for a-ketoglutarate: metabolite a-ketoglutarate; for citrate/isocitrate: metabolite citrate/isocitrate; for cytidine: metabolite cytidine; for dATP: metabolite dATP; for dGMP/AMP: metabolite dGMP/AMP; for fumarate: metabolite fumarate; for glucose-1/6-phosphate: metabolite glucose-1/6-phosphate; for glycerate: metabolite glycerate; for guanine: metabolite guanine; for guanosine: metabolite guanosine; for hypoxanthine: metabolite hypoxanthine; for indole: metabolite indole; for inosine: metabolite inosine; for 2_3-Diphosphoglyceric acid / 4-phosphopantothenate / 6-phospho-D-gluconate / FMN / IMP / Pyrophosphate / Sedoheptoluse bisphosphate / cyclic-AMP / glutathione disulfide / lactate / myo-inositol: metabolite level change after treatment; for nicotinate: metabolite nicotinate; for ornithine: metabolite ornithine; for phosphoenolpyruvate: metabolite phosphoenolpyruvate; for pyruvate: metabolite pyruvate; for ribose-phosphate: metabolite ribose-phosphate; for sarcosine/alanine: metabolite sarcosine/alanine; for sn-glycerol-3-phosphate: metabolite sn-glycerol-3-phosphate; for succinate/methylmalonic acid: metabolite succinate/methylmalonic acid; for uridine: metabolite uridine; for xanthosine: metabolite xanthosine
P. falciparum = test: EC50 listed in S2 Table Metabolomics (used to set the concentration tested); assay type: cell-based; conditions: Plasmodium falciparum; EC50 used for Factor_XEC50 in metabolomics; read-out: EC50_nM

In the case of COc1ccccc1CNC(=O)CCn1c(=O)[nH]c2ccccc2c1=O [MMV665916], the Acetyllysine [1] is reported as 0.3638, the N-acetyl-L-ornithine [1] is reported as 0.3943 and the N-carbamoyl-L-aspartate [1] is reported as -0.2097. For the same molecule, the NADPH [1] was -0.7222, the dAMP [1] was 0.5335 and the dCMP [1] was -0.1283. It also gave a dTDP [1] of 0.2837, a dTMP [1] of 0.1911 and a dTTP [1] of 0.1028. The dihydroorotate [1] was 0.195, the orotate [1] was 0.1648 and the DLH [1] was -0.3906. For the same molecule, the DLS/SDL/SID [1] was -0.1223, the PD [1] was 0.1255 and the PEE [1] was 0.2968. For the same molecule, the PVNF [1] was -0.3118, the 3-phosphoglycerate [1] was 0.2339 and the ADP-D-glucose [1] was 0.1724. The ATP [1] was 0.1531, the CDP [1] was 0.2423 and the D-sedoheptulose-1/7-phosphate [1] was 0.1783. For the same molecule, the FAD [1] was 0.06654, the GMP [1] was -0.759 and the “NAD+” value [1] was 0.08579. The “NADP+” value [1] was 0.1944, the “Octoluse Bisphosphate” value [1] was 0.5392 and the Pyroglutamic acid [1] was -0.1569. For the same molecule, the UDP-D-glucose [1] was 0.1671, the UDP-D-glucuronate [1] was 0.1875 and the UDP-N-acetyl-glucosamine [1] was 0.2144. For the same molecule, the UDP [1] was 0.1783, the UMP [1] was -0.6315 and the UTP [1] was 0.2956. It also gave an a-ketoglutarate [1] of -0.329, a citrate/isocitrate [1] of -0.5155 and a cytidine [1] of -0.1275. It also gave a dATP [1] of 0.146, a dGMP/AMP [1] of 0.3579 and a fumarate [1] of -0.07198. The glucose-1/6-phosphate [1] was -0.1463, the glycerate [1] was 0.2881 and the guanine [1] was -0.1565. It also gave a guanosine [1] of -0.3335, a hypoxanthine [1] of -0.2904 and an indole [1] of -0.1941. It also gave an inosine [1] of -0.04044, a 2_3-Diphosphoglyceric acid [1] of 0.5062 and a 4-phosphopantothenate [1] of 0.1361. For the same molecule, the 6-phospho-D-gluconate [1] was 0.2552, the FMN [1] was 0.1915 and the IMP [1] was 0.3796. For the same molecule, the Pyrophosphate [1] was 0.2568, the Sedoheptoluse bisphosphate [1] was 0.5745 and the cyclic-AMP [1] was 0.1551. For the same molecule, the glutathione disulfide [1] was 0.2989, the lactate [1] was -0.2145 and the myo-inositol [1] was 0.9008. For the same molecule, the nicotinate [1] was -0.1745, the ornithine [1] was 0.1369 and the phosphoenolpyruvate [1] was 0.02242. The pyruvate [1] was -0.2103, the ribose-phosphate [1] was -0.4062 and the sarcosine/alanine [1] was 0.2908. For the same molecule, the sn-glycerol-3-phosphate [1] was -0.1634, the succinate/methylmalonic acid [1] was -0.1615 and the uridine [1] was -0.1737. It also gave a xanthosine [1] of -0.4685 and an EC50 (P. falciparum) of 72.6 nM.

With Cc1ccc(-c2cc3c(nn2)-c2ccccc2C3=O)cc1 [MMV666021] the Acetyllysine [1] was -0.3916, the N-acetyl-L-ornithine [1] was -0.1425 and the N-carbamoyl-L-aspartate [1] was 3.794. For the same molecule, the NADPH [1] was 1.165, the dAMP [1] was -0.6653 and the dCMP [1] was -0.7362. For the same molecule, the dTDP [1] was -1.533, the dTMP [1] was -1.5256 and the dTTP [1] was -1.181. The dihydroorotate [1] was 4.247, the orotate [1] was -2.195 and the DLH [1] was 0.5354. It also gave a DLS/SDL/SID [1] of 0.5895, a PD [1] of 0.02372 and a PEE [1] of 0.1996. For the same molecule, the PVNF [1] was 0.3334, the 3-phosphoglycerate [1] was 0.4336 and the ADP-D-glucose [1] was 0.0706. For the same molecule, the ATP [1] was 0.08889, the CDP [1] was -1.433 and the D-sedoheptulose-1/7-phosphate [1] was -0.7013. For the same molecule, the FAD [1] was 0.04196, the GMP [1] was 1.198 and the “NAD+” value [1] was -0.07934. For the same molecule, the “NADP+” value [1] was 0.07896, the “Octoluse Bisphosphate” value [1] was 0.0421 and the Pyroglutamic acid [1] was -0.4992. It also gave a UDP-D-glucose [1] of 0.003691, a UDP-D-glucuronate [1] of -0.1073 and a UDP-N-acetyl-glucosamine [1] of -0.2024. For the same molecule, the UDP [1] was -2.005, the UMP [1] was -0.6482 and the UTP [1] was -1.713. For the same molecule, the a-ketoglutarate [1] was -0.6601, the citrate/isocitrate [1] was -2.126 and the cytidine [1] was 0.5518. For the same molecule, the dATP [1] was 0.3766, the dGMP/AMP [1] was -0.5358 and the fumarate [1] was 0.2361. The glucose-1/6-phosphate [1] was 0.01993, the glycerate [1] was -1.131 and the guanine [1] was -0.835. It also gave a guanosine [1] of -1.803, a hypoxanthine [1] of -0.06084 and an indole [1] of -0.09156. The inosine [1] was -0.5269, the 2_3-Diphosphoglyceric acid [1] was -0.1865 and the 4-phosphopantothenate [1] was -0.7776. It also gave a 6-phospho-D-gluconate [1] of 0.009051, an FMN [1] of 0.04698 and an IMP [1] of -0.1163. The Pyrophosphate [1] was -0.09516, the Sedoheptoluse bisphosphate [1] was -0.2318 and the cyclic-AMP [1] was -0.2358. The glutathione disulfide [1] was -0.3199, the lactate [1] was -0.9153 and the myo-inositol [1] was -1.23. It also gave a nicotinate [1] of -1.397, an ornithine [1] of 0.08018 and a phosphoenolpyruvate [1] of 0.1844. It also gave a pyruvate [1] of -1.786, a ribose-phosphate [1] of 0.5392 and a sarcosine/alanine [1] of -0.3874. It also gave a sn-glycerol-3-phosphate [1] of 0.4697, a succinate/methylmalonic acid [1] of -0.7859 and a uridine [1] of -1.3045. The xanthosine [1] was -0.5693 and the EC50 (P. falciparum) was 94.4 nM.
